In patent US6340670B1, “Acetal benzylmaltosides as inhibitors of smooth muscle cell proliferation” (American Home Products Corporation, priority 1998, dated 2002):

Tested on: Porcine Smooth Muscle Cell
Assay: Effects of Compounds on Cell Proliferation Using 3H Thymidine Incorporation
Type: cell-based
Details: for IC50: serum/growth factor stimulated cells, 24-36 h incubation, read-out: Porcine Smooth Muscle Cell Antiproliferation IC50; for Porcine Smooth Muscle Cell Antiproliferation, percent inhibition: @ 50 μM, control (100%) = maximally stimulated cells
Method: Effects of Compounds on Cell Proliferation Using ^3H Thymidine Incorporation
Human and porcine smooth muscle cells were tested in early passage (generally passage 3-7) at sub-confluent conditions. Cultures were grown in 16 mm (24 well) multi-well culture dishes in medium 199 supplemented with 10% fetal bovine serum and 2% antibiotic/antimycotic. At sub-confluence, the cells were placed in a defined serum free medium (AIM-V; Gibco) for 24-48 h prior to initiating the experimental protocol.
Compounds were added to each well at 50 fold dilution (20 μL/well) and the plates were incubated for 24-36 h at 37° C. in 5% CO2. Compounds were initially dissolved in 50% ethanol and serially diluted into media. Compounds were routinely evaluated at concentrations from 1 to 100 μM. As a control, grade II porcine intestinal mucosal heparin (sodium salt) was routinely evaluated in all cell preparations at concentrations from 0.1 to 100 μg/mL.
At the completion of the test procedure, plates were placed on ice, washed three times with ice cold phosphate buffered saline (PBS) and incubated in ice cold 10% trichloroacetic acid (TCA) got 30 min to remove acid soluble proteins. Solution was transferred to scintillation vials containing 0.4 N HCl (500 μL/vial to neutralize NaOH) and each well was rinsed two times with water (500 μL) for a total volume of 2 mL/vial.
Data was obtained, in triplicate, for both control and experimental samples. Control (100%) data was obtained from maximally stimulated cells, as the result of growth factor or serum stimulation. Experimental data was obtained from cells maximally stimulated with growth factor or serum and treated with compound. Data are expressed as an IC50 or percent inhibition in Table I below.

Row | Compound | IC50 [µM] | Porcine Smooth Muscle Cell Antiproliferation, percent inhibition [% @ 50]
1 | CC(=O)Nc1cc(COC2OC(COC(=O)c3cccnc3)C(OC3OC4COC(c5ccccc5)OC4C(O)C3O)C(O)C2O)ccc1Cl (stereo not drawn) [Example 54, Nicotinic acid 6-(3-acetylamino-4-chloro-benzyloxy)-3-(7,8-dihydroxy-2-phenyl-hexahydro-pyrano[32-d][1,3]dioxin-6-yloxy)-4,5-dihydroxy-tetrahydro-pyran-2-ylmethyl ester] | 0.211 | 
2 | CC(=O)OCC1OC(OCc2ccc(C)c(N(C(C)=O)C(C)=O)c2)C(OC(C)=O)C(OC(C)=O)C1OC1OC2COC(c3ccccc3)OC2C(OC(C)=O)C1OC(C)=O [Example 58, N-Acetyl-{5-[(2,2′,3,3′,6-penta-O-acetyl-4′,6′-O-benzylidene-β-D-maltosyl)-oxy-methyl]-2-methyl-phenyl}acetamide] | 0.6 | 
3 | CC(=O)Nc1cc(COC2OC(COC(=O)c3ccccc3)C(OC3OC4COC(C)OC4C(OC(C)=O)C3OC(C)=O)C(OC(C)=O)C2OC(C)=O)ccc1Cl [Example 3, (R)-N-[2-Chloro-5-[[[2,3-di-O-acetyl-6-O-benzoyl-4-O-(2,3-di-O-acetyl-4,6-O-ethylidene-α-D-glucopyranosyl)-β-D-glucopyranosyl]oxy]methyl]phenyl]acetamide] | 2.92 | 
4 | CC(=O)Nc1cc(COC2OC(CO)C(OC3OC4COC(c5ccc(Cl)cc5)OC4C(O)C3O)C(O)C2O)ccc1Cl [Example 12, N-{2-Chloro-5-[(4′,6′-O-(4-chloro)-benzylidene-β-D-maltosyl)-oxy-methyl]-phenyl}-acetamide] | 29.4 | 
5 | CC(=O)Nc1cc(COC2OC(COC(=O)Cc3ccccc3)C(OC3OC4COC(c5ccccc5)OC4C(O)C3O)C(O)C2O)ccc1Cl [Example 46, (R)-N-[-2-Chloro-5-[[[6-O-(phenylacetyl)-4-O-[4,6-O-(phenylmethylene)-α-D-glucopyranosyl]-β-D-glucopyranosyl]oxy]methyl]phenyl]acetamide] | 0.032 | 
6 | CC(=O)Nc1cc(COC2OC(COC(=O)c3cccc(C(F)(F)F)c3)C(OC3OC4COC(c5ccccc5)OC4C(O)C3O)C(O)C2O)ccc1Cl [Example 42, (R)-N-[2-Chloro-5-[[[6-O-(3-trifluoromethylbenzoyl)-4-O-[4,6O-(phenyl-methylene)-α-D-glucopyranosyl]-β-D-glucopyranosyl]oxy]methyl]phenyl]acetamide] | 0.027 | 
7 | O=C(OCC1OC(SCc2ccc(Cl)c([N+](=O)[O-])c2)C(O)C(O)C1OC1OC2COC(c3ccccc3)OC2C(O)C1O)c1ccccc1 [Example 87, (4-Chloro-3-nitro-benzyl) 6-O-benzoyl-4′,6′-O-benzoyl-4′,6′-O-benzylidene-1-thio-β-D-maltoside] | 0.031 | 
8 | CCC1OCC2OC(OC3C(CO)OC(OCc4ccc(Cl)c(NC(C)=O)c4)C(O)C3O)C(O)C(O)C2O1 [Example 4, N-{2-Chloro-5-[(4′,6′-O-propylidene-β-D-maltosyl)-oxy-methyl]-pheny}-acetamide] |  | 16
9 | CC(=O)Nc1cc(CO[C@@H]2O[C@H](COC(=O)c3ccccc3)[C@@H](O[C@@H]3O[C@@H]4CO[C@@H](c5ccccc5)O[C@H]4[C@H](OC(C)=O)[C@H]3OC(C)=O)[C@H](OC(C)=O)[C@H]2OC(C)=O)ccc1Cl [Example 27, (R)-N-[2-Chloro-5-[[[2,3-di-O-acetyl-6-O-benzoyl-4-O-[2,3-di-O-acetyl-4,6-O-(phenylmethylene)-β-D-glucopyranoysl]-β-D-glucopyranosyl]oxy]-methyl]-phenyl]acetamide] | 0.07 | 
10 | CC(=O)Nc1cc(CO[C@@H]2O[C@H](COC(=O)c3ccccc3)[C@@H](O[C@H]3O[C@@H]4COC(c5ccc([N+](=O)[O-])cc5)O[C@H]4[C@H](O)[C@H]3O)[C@H](O)[C@H]2O)ccc1Cl (stereo partly drawn) [Example 11, N-(5-{[6-O-Benzoyl-4′,6′-O-(4-nitro)-benzylidene-β-D-maltosyl]-oxy-methyl}-2-chloro-phenyl)-acetamide] | 0.003 | 
11 | Nc1cc(COC2OC(COC(=O)c3ccccc3)C(OC3OC4COC(c5ccccc5)OC4C(O)C3O)C(O)C2O)ccc1Cl [Example 67, 5-(6-O-Benzoyl-4′,6′-O-benzylidene-β-D-maltosyl)-oxy-methyl-2-chloro-phenylamine] | 1.29 | 
12 | CC(=O)Nc1cc(COC2OC(COC(C)=O)C(OC3OC4COC(c5ccccc5)OC4C(OC(C)=O)C3OC(C)=O)C(OC(C)=O)C2OC(C)=O)ccc1Cl [Example 25, N-{5-[(4′,6′-O-Benzylidene-2,2′,3,3′,6-penta-O-acetyl-β-D-maltosyl-oxy)-methyl]-2-chloro-phenyl}-acetamide] | 0.7 | 
13 | CCC1OCC2OC(OC3C(COC(=O)c4ccccc4)OC(OCc4ccc(Cl)c(NC(C)=O)c4)C(O)C3O)C(O)C(O)C2O1 [Example 5, N-{5-[(6-O-Benzoyl-4′,6′-O-propylidene-β-D-maltosyl)-oxy-methyl]-2-chloro-phenyl}-acetamide] | 0.037 | 
14 | CC(=O)Nc1cc(COC2OC(COC(=O)c3ccccc3)C(OC3OC4COC(Cc5ccccc5)OC4C(O)C3O)C(O)C2O)ccc1Cl [Example 17, N-{5-[(6-O-Benzoyl-4′,6′-O-((1R)-2-phenyl-ethylidene)-β-D-maltosyloxy)-methyl]-2-chloro-phenyl}-acetamide] | 0.035 | 
15 | CCOCCC1OCC2OC(OC3C(COC(=O)c4ccccc4)OC(OCc4ccc(Cl)c(NC(C)=O)c4)C(O)C3O)C(O)C(O)C2O1 [Example 21, N-{5-{[6-O-Benzoyl-4′,6′-O-((1R)-3-ethoxypropylidene)-β-D-maltosyloxy]-methyl}-2-chloro-phenyl}-acetamide] | 0.062 | 
16 | CC(=O)Nc1cc(COC2OC(COS(=O)(=O)c3ccc(C)cc3)C(OC3OC4COC(c5ccccc5)OC4C(OC(C)=O)C3OC(C)=O)C(OC(C)=O)C2OC(C)=O)ccc1Cl [Example 7, N-(5-{[2,32′,3′-Tetra-O-acetyl-4′,6′-O-benzylidene-6-O-(4-toluenesulfonyl)-β-D-maltosyl]-oxy-methyl}-2-chloro-phenyl)-acetamide] | 0.088 | 
17 | CC(=O)Nc1cc(COC2OC(COC(=O)c3ccccc3)C(OC3OC4COC(c5ccccc5)OC4C(O)C3O)C(O)C2O)ccc1C#N [Example 84, N-{5-[(6-O-Benzoyl-4′,6′-O-benzylidene-β-D-maltosyl)-oxy-methyl]-2-cyano-phenyl}-acetamide] | 0.25 | 
18 | CC(=O)N(C)c1cc(CO[C@@H]2O[C@H](CO)[C@@H](O[C@H]3O[C@@H]4COC(c5ccccc5)O[C@H]4[C@H](O)[C@H]3O)[C@H](O)[C@H]2O)ccc1Cl (stereo partly drawn) [Example 78, N-{5-[(4′,6′-O-Benzylidene-β-D-maltosyl)-oxymethyl]-2-chloro-phenyl}-N-methyl-acetamide] |  | 8
19 | CC(=O)Nc1cc(COC2OC(COCc3ccccc3)C(OC3OC4COC(c5ccccc5)OC4C(O)C3O)C(O)C2O)ccc1Cl [Example 8, N-{5-[(6-O-Benzyl-4′,6′-O-benzylidene-β-D-maltosyl)-oxy-methyl]-2-chloro-phenyl}-acetamide] | 0.001 | 
20 | N-{5-[(6-O-(3-Benzyl-1-oxo-propyl)-4′,6′-O-benzylidene-β-D-maltosyl)-oxy-methyl]-2-chloro-phenyl}-carbamic acid methyl ester [Example 82] | 0.352 | 
21 | C=CCCC(=O)Nc1cc(CO[C@@H]2O[C@H](COC(=O)c3ccccc3)[C@@H](O[C@H]3O[C@@H]4COC(c5ccccc5)O[C@H]4[C@H](O)[C@H]3O)[C@H](O)[C@H]2O)ccc1Cl (stereo partly drawn) [Example 66, N-{2-Chloro-5-[(6-O-benzoyl-4′,6′-O-benzilidene-β-D-maltosyl)-oxy-methyl]-phenyl}-pent-4-enamide] | 0.18 | 
